Assay results taken from patent US20120329879A1, “BETA-ADRENERGIC RECEPTOR AGONISTS AND USES THEREOF” (THE UNIVERSITY OF TENNESSEE RESEARCH FOUNDATION, priority 2010, published 2012).

How the values were obtained:
[1] = tested on: Human retinal endothelial cells (HREC); test: TNFalpha and cleaved caspase 3 ELISA in retinal endothelial cells cultured in high glucose; type: cell-based
Procedure: (§1) Human retinal endothelial cells (HREC) were purchased from Cell Systems (Kirkland, Wash.) and grown in either basal (5 mM glucose) or growth (25 mM glucose) media. Both media is supplemented with 10% FBS and antibiotics. The day prior to experiments, cells are serum-starved for 18-24 hours. Rat Müller cells (rMC-1) were grown in DMEM medium with 5 mM glucose or 25 mM glucose. Media was supplemented with 10% FBS and antibiotics. Cells were serum starved prior to all experiments for 18-24 hours.
(§2) Human retinal endothelial cells (HREC) and rat Muller cells (rMC-1) in both glucose conditions were treated with Compound 2 at doses of 10 nM, 50 nM, 100 nM, 1 μM, and 10 μM of Compound 2. Cells of each type were grown in medium containing L-glucose to control for changes in osmolarity. 10 μM isoproterenol was also used for each condition as a positive control. Müller cells were treated for 1 hour and 24 hours, while HREC were treated for 30 and 60 minutes.
(§3) Following treatment, cells were collected into lysis buffer containing protease and phosphatase inhibitors. ELISA analyses for TNFalpha, cleaved caspase 3, and PKA were done according to manufacturers instructions. Data is compared against non-treated cells and cells at the various doses. A Kruskal-Wallis test is done, with a Dunn's test for secondary analyses. […] The dose that decreases TNFalpha and caspase 3 levels also increases PKA activity.

[2] = tested on: Rat Müller cells (rMC-1); test: TNFalpha and cleaved caspase 3 ELISA in Müller cells cultured in high glucose; type: cell-based
Procedure: as §1, §2, §3

[3] = Body weight, blood glucose, blood pressure and intraocular pressure in streptozotocin diabetic rats on eye drop therapy; type: in vivo, rat; details: rats, 50 mM topical dose of isoproterenol
Procedure: Male Lewis rats purchased from Charles River were used. Diabetic rats received a single injection of 60 mg/kg streptozotocin (Fisher, Pittsburgh, Pa.). […] All rats were weighed weekly and only rats with non-fasting blood glucose levels >250 mg/dl were considered diabetic. The designation of diabetic was made at the beginning of the experiments. Glucose was measured bimonthly. No insulin was administered to the rats at any time. To determine whether topical application of Compound 2 could reach the retina and elicit response, dose and time course studies were performed. For those studies, animals were made diabetic for 2 months using STZ. For 4 days, rats received a variety of doses of either Compound 2 (1 mM to 20 mM) or PBS once or twice each day. After the 4 days of eye drop treatment to both eyes, the diabetic and control animals were euthanized. […] After determining the optimal dose and time course for eye drop treatment for Compound 2, three groups of rats were used for this part of the study (control, diabetic (Diabetic), and diabetic+eye drop (Diab+2). Within 1 week of STZ-injection, 12 rats were put onto eye drop therapy. Rats on the eye drop therapy received a daily application of 4 drops of 1 mM Compound 2 to each eye. To verify that insulin levels were lost in the diabetic animals, insulin ELISA (Rat/Mouse Insulin ELISA kit, Linco, St. Charles, Mo.) was done on blood sampled from all rats at 2 months of age. Rats were sacrificed at 2 or 8 months of age. […] Analyses on the rats were done for acute changes (8 weeks of diabetes, 45 rats) and chronic changes (8 months of diabetes, 45 rats). […] Each month, all rats were tested for visual function: electroretinogram (ERG) and live retinal imaging were performed using Optical Coherence Topography (OCT). […] While the animals were asleep for ERG analyses, blood pressure and pulse were monitored to detect potential negative cardiovascular events.

[4] = tested on: retina; details: given systemically to rodents; cited from earlier work
[5] = REC in high glucose, 50 nM, vs non-treated
[6] = Müller cells in high glucose, 50 nM, vs non-treated
[7] = Müller cells, 10 μM isoproterenol

For `COc1cc(CCNC[C@H](O)c2ccc(O)c(O)c2)cc(OC)c1OC.Cl` (single isomer, unassigned) [R-isomer of Compound 2], the “TNFalpha concentration and cleaved caspase 3: comparison of isomers” value ([1]; retinal endothelial cells, 50 nM, 1 hour or 24 hours) was “superior to the S-isomer of Compound 2 and racemic Compound 2” and the “TNFalpha concentration and cleaved caspase 3: comparison of isomers” value ([2]; Muller cells, 50 nM, 1 hour or 24 hours) was “superior to the S-isomer of Compound 2 and racemic Compound 2”.
For `COc1cc(CCNC[C@H](O)c2ccc(O)c(O)c2)cc(OC)c1OC` [Compound 3, 4-[1-hydroxy-2-(1-ethylamino-3-,4-,5-trimethoxyphenyl)ethyl]benzene-1,2-diol], the “TNFalpha levels, in words” value [1, 5] was “reduced”, the “cleaved caspase 3 levels, in words” value [1, 5] was “reduced the cleavage of caspase 3” and the “TNFalpha levels, in words” value [2, 6] was “significantly reduced TNFalpha within 1 hour”. For the same compound, the “cleaved caspase 3 levels, in words” value [2, 6] was “reduced the cleavage of caspase 3”.
In the case of `COc1cc(CCNC[C@H](O)c2cc(O)cc(O)c2)cc(OC)c1OC.Cl` [Compound 4, 5-(1-hydroxy-2-[2-(3,4,5-trimethosy-phenyl)-ethylamino]-ethyl)-benzene-1,3-diol hydrochloride], the “beta-2-adrenergic receptor activity (ELISA data)” value ([1]; REC cells, 50 nM) is reported as “has more beta-2-adrenergic receptor activity”, the “TNFalpha levels, in words” value [1, 5] is reported as “reduce TNFalpha levels” and the “cleaved caspase 3 levels, in words” value [1, 5] is reported as “reduce TNFalpha levels and the cleavage of caspase 3”. The “time to activate response compared with Compound 2” value ([1]; retinal endothelial cells, 50 nM) was “does take longer to activate response”, the “beta-2-adrenergic receptor activity (ELISA data)” value ([2]; Muller cells, 50 nM) was “has more beta-2-adrenergic receptor activity” and the “effectiveness and speed compared with Compound 2” value ([2]; Muller cells, 50 nM) was “more effective and works faster than Compound 2”. For the same compound, the “TNFalpha levels, in words” value [2, 6] was “reduce TNFalpha levels” and the “cleaved caspase 3 levels, in words” value [2, 6] was “reduce TNFalpha levels and the cleavage of caspase 3”.
In the case of `CC(C)NCC(O)c1ccc(O)c(O)c1` (centres unmarked) [isoproterenol, 4-[1-hydroxy-2-(isopropylamino)ethyl]benzene-1,2-diol, reference compound], the “negative cardiovascular events (blood pressure and pulse)” value [3] is reported as “these events have not been observed”, the “cleaved caspase 3 levels, in words” value ([1]; REC in hyperglycemic conditions, isoproterenol, concentration not given) is reported as “can decrease cleaved caspase 3 levels” and the “TNFalpha reduction, in words” value ([1]; retinal endothelial cells, 10 μM in vitro) is reported as “did not significantly reduce TNFalpha”. For the same compound, the “concentration required for the same response (reduction of cleaved caspase 3 and TNFalpha)” value ([2]; Müller cells in high glucose, compared with 50 nM Compound 2) was 10 µM, the “cleaved caspase 3 levels, in words” value ([2]; Müller cells in hyperglycemic conditions, isoproterenol, concentration not given) was “can decrease cleaved caspase 3 levels” and the “time for blockade of apoptosis” value [2, 7] was 24 h. For the same compound, the “time for inhibition of TNFalpha activity” value [2, 7] was no more than 1 h.
For `CC(C)NCC(O)COc1cccc2ccccc12` (centres unmarked) [propranolol], the “electrical activity in the retina” value [4] is given as “produced significant deficits in the electrical activity in the retina” and the “growth factors that may promote neovascularization” value [4] is given as “activated growth factors that may promote neovascularization”.
